This is an account of results in ChEMBL document CHEMBL1129043, “Preparation of phenolic paclitaxel metabolites” (J Med Chem, 1996).

This series in a line: Ratio of ED50 for cytotoxicity against B16 melanoma to paclitaxel. The settings on record: mouse.

Turning to `CC(=O)O[C@H]1C(=O)[C@@]2(C)[C@H]([C@H](OC(=O)c3cccc(O)c3)[C@]3(O)C[C@H](OC(=O)[C@H](O)[C@@H](NC(=O)c4ccccc4)c4ccccc4)C(C)=C1C3(C)C)[C@]1(OC(C)=O)CO[C@@H]1C[C@@H]2O`, the Ratio was over 20.
